Publication PMC6017655, “In Silico and in Vitro-Guided Identification of Inhibitors of Alkylquinolone-Dependent Quorum Sensing in Pseudomonas aeruginosa” (Molecules : A Journal of Synthetic Chemistry and Natural …, 2018)

Tests used:
Assay type in all cases: cell-based, Pseudomonas aeruginosa
[1] = system: PqsR (pqsA promoter, PA14 mCTX::PpqsA-lux); assay: Whole cell biosensor reporter assay, PA14 mCTX::PpqsA-lux; conditions: Pseudomonas aeruginosa, PA14, read-out: PA14 Remaining Activity %
Procedure: (§1) To determine the ability of the quinolines to inhibit PqsR functionality, the P. aeruginosa biosensor strains, PAO1-L and PA14, incorporating a chromosomal mCTX::PpqsA-lux transcriptional fusion, were used. These report on the activation of the pqsA promoter, regulated by PqsR [25]. PAO1-L and PA14 were chosen because they are genetically amenable and belong to the two major P. aeruginosa genomic groups. The quinolone compounds were incubated with the corresponding strain, and luminescence and optical density readings were recorded to monitor the effect of the quinolines on PqsR activity and bacterial growth, respectively. The compounds were screened at 10 µM concentration, and the activity was compared to a control of DMSO (0.1%) (Figure 3a). To be considered a hit, a threshold of at least 50% inhibition of the test compound, relative to the negative control had to be reached, without affecting bacterial growth. […] Concentration-response experiments were then carried out to determine the IC50 values (Figure 3b,c), which are summarised in Table 1.
(§2) Strains PA14 mCTX::PpqsA-lux and PAO1-L mCTX::PpqsA-lux were constructed using plasmid mini-CTX::PpqsA-lux, as previously described, and the assay was performed according to a published protocol. For screening, the compounds were tested at a concentration of 10 µM, which was prepared from a 10 mM stock, in DMSO.

[2] = system: PqsR (pqsA promoter, PAO1-L mCTX::PpqsA-lux); assay: Whole cell biosensor reporter assay, PAO1-L mCTX::PpqsA-lux; conditions: Pseudomonas aeruginosa, PAO1, read-out: PAO1-L Remaining Activity %
Procedure: as §1, §2

PAO1-L biofilms = assay: Biofilm assay on glass coverslips, GFP-labelled PAO1-L; conditions: Ia 34 µM; tobramycin 100 µg/mL for 4 h
Procedure: (§3) One of the clinical challenges of P. aeruginosa infections is the difficulty associated with the effective treatment of biofilms due to their high resistance to antibiotics. […] The effect of Ia, with or without tobramycin, on PA14 and PAO1-L biofilms grown on glass coverslips, was determined. […] The experiment was performed using green fluorescent labelled (GFP)-labelled PAO1-L and PA14 strains, grown under four different conditions: (i) no treatment (control); (ii) compound Ia at 8 µM in PA14 and 34 µM in PAO1-L (concentrations equal to 3× IC50); (iii) tobramycin at 100 µg/mL; (iv) Ia and tobramycin, at the same concentrations as (ii) and (iii).
(§4) Biofilms were cultivated on borosilicate glass coverslips in petri dishes. P. aeruginosa strains, PAO1-L and PA14, were labelled by transformation with plasmid pMMG, which constitutively expresses GFP from the Ptac promoter. Labelled strains were grown at 37 °C, for 16 h, in 2 mL RPMI-1640 (Lonza, Slough, UK), supplemented with 20 mM D-glucose (Sigma–Aldrich, Dorset, UK) and 2 µM FeCl3 (Sigma–Aldrich, Dorset, UK). Cultures were diluted 1:100 in fresh medium and allowed to grow for a further 4 h, or until an OD600 of 0.5 was reached. The mid-logarithmic cultures were diluted to an OD600 of 0.01 in 25 mL RPMI, supplemented with glucose and FeCl3, and inoculated into petri dishes containing UV sterilised borosilicate glass coverslips (22 × 22 mm, thickness no1) (VWR, Lutterworth, UK). Bacterial cells were seeded at 37 °C under static conditions for 1.5 h, and compound Ia was added to the culture at a concentration of 34 µM for P. aeruginosa PAO1-L and 8 µM for PA14 before dishes were moved to a shaker at 60 rpm and 37 °C for 15 h to form mature biofilms. Tobramycin and propidium iodide were added to the 15 h-old cultures at concentrations of 100 µg/mL and 2 µM, respectively, followed by further incubation for 4 h. Coverslips were examined under a Laser Scanning Fluorescent Microscope (LSM2, Zeiss, Oberkochen, Germany). Biofilms were visualised using egfp mode at an excitation wavelength of 488nm. Imaging was carried out using Zen 2011 imaging software (Zeiss, Oberkochen, Germany). A total of 5 Z-stacked images were collected per coverslip. Sampling was conducted at random from the central portion of each coverslip. Biomass was calculated using Image J (NIH, Bethesda, MD, USA) and Comstat 2.1. Software package (www.comstat.dk, lyngby, Denmark).

PA14 biofilms = assay: Biofilm assay on glass coverslips, GFP-labelled PA14; conditions: Ia 8 µM; tobramycin 100 µg/mL for 4 h
Procedure: as §3, §4

Structure (SMILES) | activity at 10 µM [1] | activity at 10 µM [2] | also measured
COc1ccc(C2=NN(C(C)=O)C(c3cccc(Nc4ccnc5cc(C(F)(F)F)ccc45)c3)C2)cc1 (stereo not shown) [IIk] | 118 ± 5.97% | 66.7 ± 0.42% | –
O=CN1N=C(c2ccc(Br)cc2)CC1c1cccc(Nc2ccnc3cc(C(F)(F)F)ccc23)c1 (stereo not shown) [Io] | 80.6 ± 6.26% | 68.5 ± 3.43% | –
CC(=O)N1N=C(c2ccc(Cl)cc2)CC1c1cccc(Nc2ccnc3cc(Cl)ccc23)c1 (stereo not shown) [IIf] | 103 ± 4.91% | 90.2 ± 3.84% | –
COc1cc(C2=NN(C(C)=O)C(c3cccc(Nc4ccnc5cc(Cl)ccc45)c3)C2)cc(OC)c1OC (stereo not shown) [IId] | 110 ± 1.6% | 127 ± 9.69% | –
COc1ccc(C2=NN(C=O)C(c3cccc(Nc4ccnc5cc(C(F)(F)F)ccc45)c3)C2)cc1 (stereo not shown) [Ik] | 99.7 ± 9.37% | 78.6 ± 5.75% | –
O=CN1N=C(c2ccc(Cl)cc2)CC1c1cccc(Nc2ccnc3cc(C(F)(F)F)ccc23)c1 (stereo not shown) [In] | 93.6 ± 4.45% | 61.8 ± 3.97% | –
O=CN1N=C(c2ccc3c(c2)OCO3)CC1c1cccc(Nc2ccnc3cc(C(F)(F)F)ccc23)c1 (stereo not shown) [Ip] | 81.4 ± 9.36% | 84.3 ± 5.48% | –
CC(=O)N1N=C(c2ccc(F)cc2)CC1c1cccc(Nc2ccnc3cc(C(F)(F)F)ccc23)c1 (stereo not shown) [IIm] | 99.9 ± 3.17% | 90.2 ± 4.4% | –
NC[C@H]1O[C@H](O[C@H]2[C@H](O)[C@@H](O[C@H]3O[C@H](CO)[C@@H](O)[C@H](N)[C@H]3O)[C@H](N)C[C@@H]2N)[C@H](N)C[C@@H]1O [tobramycin, reference compound] | – | – | Effect on biofilm biomass, PAO1-L (PAO1-L biofilms): significantly reduced biofilm biomass; Effect on cell viability in biofilm (propidium iodide), PAO1-L (PAO1-L biofilms): increasing the proportion of dead bacterial cells substantially; Effect on biofilm biomass, PA14 (PA14 biofilms): significantly reduced biofilm biomass; Effect on cell viability in biofilm (propidium iodide), PA14 (PA14 biofilms): increasing the proportion of dead bacterial cells substantially
CC(=O)N1N=C(c2ccc(Br)cc2)CC1c1cccc(Nc2ccnc3cc(C(F)(F)F)ccc23)c1 (stereo not shown) [IIo] | 95.6 ± 9.58% | 80.8 ± 5.06% | –
CC(=O)N1N=C(c2ccc3c(c2)OCO3)CC1c1cccc(Nc2ccnc3cc(C(F)(F)F)ccc23)c1 (stereo not shown) [IIp] | 99.6 ± 4.09% | 71.6 ± 5.07% | –
Cc1ccc(C2=NN(C=O)C(c3cccc(Nc4ccnc5cc(C(F)(F)F)ccc45)c3)C2)cc1 (stereo not shown) [Ij] | 84.9 ± 8.17% | 93.7 ± 6.15% | –
CC(=O)N1N=C(c2ccc(C)cc2)CC1c1cccc(Nc2ccnc3cc(C(F)(F)F)ccc23)c1 (stereo not shown) [IIj] | 108 ± 6.05% | 97.3 ± 6.46% | –
CC(=O)N1N=C(c2ccc(C)cc2)CC1c1cccc(Nc2ccnc3cc(Cl)ccc23)c1 (stereo not shown) [IIb] | 96.2 ± 4.34% | 59.5 ± 1.86% | –
COc1ccc(C2=NN(C=O)C(c3cccc(Nc4ccnc5cc(Cl)ccc45)c3)C2)cc1 (stereo not shown) [Ic] | 102 ± 11.7% | 100 ± 8.46% | –
COc1cc(C2=NN(C=O)C(c3cccc(Nc4ccnc5cc(C(F)(F)F)ccc45)c3)C2)cc(OC)c1OC (stereo not shown) [Il] | 106 ± 15.3% | 85.8 ± 2.39% | –
CC(=O)N1N=C(c2ccc(F)cc2)CC1c1cccc(Nc2ccnc3cc(Cl)ccc23)c1 (stereo not shown) [IIe] | 120 ± 1.59% | 82.6 ± 22.7% | –
O=CN1N=C(c2ccc3c(c2)OCO3)CC1c1cccc(Nc2ccnc3cc(Cl)ccc23)c1 (stereo not shown) [Ih] | 85.8 ± 9.42% | 49.9 ± 12% | –
Cc1ccc(C2=NN(C=O)C(c3cccc(Nc4ccnc5cc(Cl)ccc45)c3)C2)cc1 (stereo not shown) [Ib] | 78.4 ± 6.51% | 77 ± 2.25% | –
O=CN1N=C(c2ccc(F)cc2)CC1c1cccc(Nc2ccnc3cc(C(F)(F)F)ccc23)c1 (stereo not shown) [Im] | 74.9 ± 8.28% | 65.1 ± 4.89% | –
COc1cc(C2=NN(C=O)C(c3cccc(Nc4ccnc5cc(Cl)ccc45)c3)C2)cc(OC)c1OC (stereo not shown) [Id] | 110 ± 15% | 130 ± 5.04% | –
COc1cc(C2=NN(C(C)=O)C(c3cccc(Nc4ccnc5cc(C(F)(F)F)ccc45)c3)C2)cc(OC)c1OC (stereo not shown) [IIl] | 103 ± 4.84% | 86.1 ± 2.39% | –
COc1ccc(C2=NN(C(C)=O)C(c3cccc(Nc4ccnc5cc(Cl)ccc45)c3)C2)cc1 (stereo not shown) [IIc] | 115 ± 2.13% | 120 ± 8.28% | –
CC(=O)N1N=C(c2ccc(Br)cc2)CC1c1cccc(Nc2ccnc3cc(Cl)ccc23)c1 (stereo not shown) [IIg] | 109 ± 2.79% | 63.7 ± 5.01% | –
O=CN1N=C(c2ccc(F)cc2)CC1c1cccc(Nc2ccnc3cc(Cl)ccc23)c1 (stereo not shown) [Ie] | 70.4 ± 6.53% | 40.6 ± 3.71% | –
CC(=O)N1N=C(c2ccc3c(c2)OCO3)CC1c1cccc(Nc2ccnc3cc(Cl)ccc23)c1 (stereo not shown) [IIh] | 115 ± 6.02% | 65.8 ± 5.63% | –
O=CN1N=C(c2ccc(Br)cc2)CC1c1cccc(Nc2ccnc3cc(Cl)ccc23)c1 (stereo not shown) [Ig] | 94.8 ± 8.91% | 88.1 ± 6.05% | –
CC(=O)N1N=C(c2ccc(Cl)cc2)CC1c1cccc(Nc2ccnc3cc(C(F)(F)F)ccc23)c1 (stereo not shown) [IIn] | 98.1 ± 11.4% | 97.8 ± 5.52% | –
